Reference: PMC9530166, “Allosteric regulation of glycogen breakdown by the second messenger cyclic di-GMP” (Nature Communications, 2022)
“Also recorded” adds a separate entry of the source.

How the values were obtained:
His6-GlgXDETR(49-52) = assay: nanoDSF thermal shift assay, RETD49-52 swap mutant; format: binding, Streptomyces venezuelae; conditions: His6-GlgXDETR(49-52) mutant
Procedure: (§1) Arginine and aspartic acid arranged in an RxxD motif are often found as c-di-GMP binding signatures in effector proteins[28],[34]. […] To determine if either of these motifs are involved in c-di-GMP binding, we swapped the arginine and aspartic acid residues in the two motifs and purified His6-GlgXDETR(49-52) and His6-GlgXDLVR(212-215).
(§2) For label-free thermal shift assay experiments, 10 μM purified protein in 25 mM Tris pH 8, 150 mM NaCl, 2.5% (v/v) glycerol, and 5 mM MgCl2 was incubated without or with (1 mM) of nonlabeled c-di-GMP or c-di-AMP, respectively, at rt for 10 min. Reactions were subsequently analyzed in a Tycho NT.6 (NanoTemper Technologies) device with a 30 K/min thermal ramp and the internal fluorescence at 330 and 350 nm was recorded. Data analysis and calculation of derivatives was done using the internal evaluation features of the Tycho instrument.
(§3) 217 Supplementary Fig. 5: NanoDSF assays with mutagenized His6-GlgX variants. (a) Swap of the
(§4) 219 This was confirmed by DRaCALA, right. For DRaCALA assays, 15 µg of purified E. coli His6-GlgX
(§5) 220 or His6-Vnz25270, respectively, were mixed with 0.5 µl of [32P]-c-di-GMP (Hartmann Analytic
(§6) 221 GmbH, Braunschweig) in binding buffer (25 mM Tris pH 8.0, 150 mM NaCl, 2.5% (v/v) glycerol
(§7) 222 and 5 mM MgCl2). […]
(§8) 223 air dried for 10 min and analyzed by phosphorimaging. […]

His6-GlgXDLVR(212-215) = assay: nanoDSF thermal shift assay, RLVD212-215 swap mutant; format: binding, Streptomyces venezuelae; conditions: His6-GlgXDLVR(212-215) mutant
Procedure: as §1, §2, §3, §4, §5, §6, §7, §8

GlgXR438A-R579A = assay: Fluorescence polarization binding, GlgXR438A-R579A; design: species or system Streptomyces venezuelae
From the text: Fig. 5 Structure of the S. venezuelae GlgX-c-di-GMP complex. a Ribbon diagram of the S. venezuelae GlgX-c-di-GMP complex with one GlgX subunit colored cyan and the other salmon. Shown as sticks are the c-di-GMP molecules bound at each end of the antiparallel dimer. […] There was clear density for each c-di-GMP molecule. b Close up of the GlgX-c-di-GMP binding interaction. Key residues mediating contacts to the c-di-GMP are shown as sticks and labeled. Hydrogen bonds from GlgX residues that specify binding to the guanine are indicated by yellow dashed lines. c Fluorescence polarization (FP) binding isotherm showing interaction of GlgX, GlgXE47A-R49A and GlgXR438A-R579A for F-c-di-GMP in red, green and blue respectively. Also shown is the binding isotherm for GlgX binding to F-c-di-AMP in black. […] The y-axis and x-axis are millipolarization (mP) units and GlgX concentration (μM), respectively. Shown are representative binding curves for each. The experiments were performed in technical triplicates and the error between measurements reported. […]
Thus, we used this F-tagged c-di-GMP in fluorescence polarization (FP) studies to quantify the interaction between GlgX and c-di-GMP. […] To ensure that the presence of the fluorescent tag was not impacting the GlgX interaction with c-di-GMP we used microscale thermophoresis (MST) to quantify c-di-GMP binding to GlgX. […]

GlgX = GlgX (Streptomyces venezuelae, UniProt F2RAW5); assay: Microscale thermophoresis (MST); format: binding; conditions: 40 nM RED-NHS labeled GlgX, unlabeled c-di-GMP, n=2
GlgX, sequence (F2RAW5 entry or part of it): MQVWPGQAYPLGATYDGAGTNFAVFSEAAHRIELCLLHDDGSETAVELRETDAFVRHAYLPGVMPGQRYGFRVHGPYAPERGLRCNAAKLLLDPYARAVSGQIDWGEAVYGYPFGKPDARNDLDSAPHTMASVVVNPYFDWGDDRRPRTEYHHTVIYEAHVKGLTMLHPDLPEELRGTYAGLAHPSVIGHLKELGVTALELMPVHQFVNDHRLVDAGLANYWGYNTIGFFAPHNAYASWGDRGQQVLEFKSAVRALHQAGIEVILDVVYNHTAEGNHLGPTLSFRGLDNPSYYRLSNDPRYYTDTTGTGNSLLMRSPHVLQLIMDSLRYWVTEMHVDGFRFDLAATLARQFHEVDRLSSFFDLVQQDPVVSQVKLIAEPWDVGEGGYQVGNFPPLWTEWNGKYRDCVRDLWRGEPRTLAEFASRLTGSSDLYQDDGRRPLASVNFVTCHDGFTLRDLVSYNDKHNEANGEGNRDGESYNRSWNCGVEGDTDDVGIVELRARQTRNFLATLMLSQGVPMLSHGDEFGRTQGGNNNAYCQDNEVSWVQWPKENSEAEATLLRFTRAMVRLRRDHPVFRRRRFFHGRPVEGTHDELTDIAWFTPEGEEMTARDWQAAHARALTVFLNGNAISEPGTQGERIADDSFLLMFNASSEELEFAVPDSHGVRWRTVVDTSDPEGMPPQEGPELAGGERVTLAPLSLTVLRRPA
Procedure: For MST experiments, purified GlgX was labeled using Monolith NT protein labeling kit RED-NHS (amine reactive) dye (NanoTemper Technologies GmbH) according to manufacturer´s guidelines. The protein concentration was adjusted to 20 μM in labeling buffer and the labeling reaction was carried out at rt for 30 min in the dark. Excess fluorescence dye was subsequently removed from the labeled protein by gel filtration using a dye removal column provided by the supplier and equilibrated with MST buffer (25 mM Tris pH 8, 150 mM NaCl, 2.5% (v/v) glycerol, 5 mM MgCl2, 0.05% (v/v) Tween). A UV/VIS spectrophotometry at 650 and 280 nm was used to determine the degree of labeling. Next, labeled GlgX was adjusted to 80 nM in MST buffer and a series of 16 1:2 dilutions of c-di-GMP (BioLog) were prepared using the same buffer. An equal volume of protein and c-di-GMP dilutions were mixed resulting in 16 samples with 40 nM protein each and c-di-GMP concentrations ranging from 2 mM to […]. Samples were then loaded into Monolith NT.115 Premium Capillaries (NanoTemper Technologies) and MST was measured using a Monolith NT.115 instrument (NanoTemper Technologies). Instrument parameters were set to 20% LED power and 40% MST power and the data were analyzed using MO.Affinity Analysis software version 2.3; NanoTemper Technologies. […]

How did the “effect of c-di-GMP in nanoDSF” value (His6-GlgXDETR(49-52)) turn out when `Nc1nc2c(ncn2[C@@H]2O[C@@H]3CO[P@](=O)(O)O[C@H]4[C@@H](O)[C@H](n5cnc6c(=O)[nH]c(N)nc65)O[C@@H]4CO[P@](=O)(O)O[C@H]3[C@H]2O)c(=O)[nH]1` [c-di-GMP, bis-(3′−5′)-cyclic diguanosine monophosphate] was run?
The value was “abolishes c-di-GMP binding; also recorded: no effect”.

And the “shift in melting/unfolding temperature by c-di-GMP” value (His6-GlgXDLVR(212-215))?
Its value is “still allows ligand binding; also recorded: still caused a shift”.

And the “binding to mutant in FP” value (GlgXR438A-R579A)?
The value was “weak, nonsaturable binding”.

And the Kd (GlgX)?
Its Kd is 8.3 µM.
